The target in test [1] is T1, EP2 (Homo sapiens (Human), UniProt P43116). Description: EP2 cAMP functional assay. The format is cell-based.
Test [2] deals with T1, EP2. Nature of the test: EP2 radioligand competition binding ([3H]PGE2). To be noted: HEK-293 cells stably expressing receptor, [3H]PGE2 radioligand. How it is done: Competition binding experiments were performed in a medium containing Hank's balanced salt solution, Hepes 20 mM, pH 7.3, membranes (˜60 μg protein) or 2×10^5 cells from HEK 293 cells stably expressing human EP2 receptors, [^3H]PGE2 (10 nM) and various concentrations of test compounds in a total volume of 300 μl. Reaction mixtures were incubated at 23° C. for 60 min, and were filtered over Whatman GF/B filters under vacuum. Filters were washed three times with 5 ml ice-cold buffer containing 50 mM Tris/HCl (pH 7.3). Non-specific binding was estimated in the presence of excess unlabeled PGE2 (10 μM). Binding data fitted to the binding model for a single class of binding sites, using nonlinear regression analysis. IC50 values thus obtained were converted to Ki using the equation of Ki=(IC50/(1+[L]/KD) where [L] represents PGE2 concentration (10 nM) and KD the dissociation constant for [^3H]PGE2 at human EP2 receptors (40 nM). […]
The cell homogenate was centrifuged at 19000 r.p.m. for 20 min at 4° C. using a Beckman Ti-60 rotor. The resultant pellet was resuspended in TME buffer to give a final 1 mg/ml protein concentration, as determined by Biorad assay. […]
[^3H—] […] 17-phenyl PGF2a and non-specific binding determined with 10^−5M of unlabeled PGE2, or 17-phenyl PGF2a, according to receptor subtype studied.
A general note: Displacement assays read how much labelled ligand stays bound in the presence of the test substance.

Test [3] deals with T2, EP4 (Homo sapiens (Human), UniProt P35408). Description: EP4 cAMP functional assay. The format is cell-based.
T2 sequence (P35408 whole entry): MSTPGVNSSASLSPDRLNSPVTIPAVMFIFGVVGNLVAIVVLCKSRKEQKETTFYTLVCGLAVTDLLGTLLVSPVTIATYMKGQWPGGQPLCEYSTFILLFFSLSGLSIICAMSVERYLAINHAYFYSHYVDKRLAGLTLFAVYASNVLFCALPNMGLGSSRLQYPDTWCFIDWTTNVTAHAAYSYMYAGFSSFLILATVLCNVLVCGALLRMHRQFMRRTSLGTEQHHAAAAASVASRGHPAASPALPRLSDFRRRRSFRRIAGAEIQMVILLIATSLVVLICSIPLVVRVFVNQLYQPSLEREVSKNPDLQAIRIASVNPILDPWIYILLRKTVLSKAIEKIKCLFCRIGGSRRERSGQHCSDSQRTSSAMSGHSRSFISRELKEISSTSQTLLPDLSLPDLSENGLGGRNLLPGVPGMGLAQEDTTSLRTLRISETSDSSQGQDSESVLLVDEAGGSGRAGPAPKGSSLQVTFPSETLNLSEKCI
In test [4] the target is T2, EP4. Nature of the test: EP4 radioligand competition binding ([3H]PGE2). To be noted: HEK-293 cells stably expressing receptor, [3H]PGE2 radioligand. How it is done:
HEK-293 cells stably expressing the human or feline FP receptor, or EP1, EP2, or EP4 receptors were washed with TME buffer, scraped from the bottom of the flasks, and homogenized for 30 sec using a Brinkman PT 10/35 polytron. TME buffer was added to achieve a final 40 ml volume in the centrifuge tubes (the composition of TME is 100 mM TRIS base, 20 mM MgCl2, […]; 10N HCl is added to achieve a pH of 7.4).
The cell homogenate was centrifuged at 19000 r.p.m. for 20 min at 4° C. using a Beckman Ti-60 rotor. The resultant pellet was resuspended in TME buffer to give a final 1 mg/ml protein concentration, as determined by Biorad assay. Radioligand binding competition assays vs. [^3H-]17-phenyl PGF2a (5 nM) were performed in a 100 μl volume for 60 min. Binding reactions were started by adding plasma membrane fraction. The reaction was terminated by the addition of 4 ml ice-cold TRIS-HCl buffer and rapid filtration through glass fiber GF/B filters using a Brandel cell harvester. The filters were washed 3 times with ice-cold buffer and oven dried for one hour.
[^3H—] PGE2 (specific activity 180 Ci mmol) was used as the radioligand for EP receptors. [^3H] 17-phenyl PGF2a was employed for FP receptor binding studies. […] 17-phenyl PGF2a and non-specific binding determined with 10^−5M of unlabeled PGE2, or 17-phenyl PGF2a, according to receptor subtype studied.

T1 sequence (P43116 whole entry): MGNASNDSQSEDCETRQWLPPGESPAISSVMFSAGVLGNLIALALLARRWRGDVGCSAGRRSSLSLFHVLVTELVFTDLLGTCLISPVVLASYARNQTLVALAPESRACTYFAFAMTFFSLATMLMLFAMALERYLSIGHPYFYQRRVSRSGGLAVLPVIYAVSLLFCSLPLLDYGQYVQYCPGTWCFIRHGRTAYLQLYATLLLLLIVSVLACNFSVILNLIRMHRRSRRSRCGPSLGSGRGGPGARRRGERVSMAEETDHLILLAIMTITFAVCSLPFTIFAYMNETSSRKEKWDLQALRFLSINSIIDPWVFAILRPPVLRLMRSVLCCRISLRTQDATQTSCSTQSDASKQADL

Take `O=C(O)c1ccc(CCCN2[C@@H](/C=C/C(O)Cc3cccc(C(F)(F)F)c3)CCS2(=O)=O)s1` (stereo partly drawn) [Compound 14, 5-(3-((3R)-3-((E)-3-Hydroxy-4-(3-(trifluoromethyl)phenyl)but-1-en-1-yl)-1,1-dioxidoisothiazolidin-2-yl)propyl)thiophene-2-carboxylic acid]: the EC50 was determined as 38 nM at EP2 [1], 96 nM on EP2 [2], 1 nM on EP4 [3] and 53 nM on EP4 [4].

A word on the EC50: it is the midpoint of the concentration-response curve.

Source of the values: patent US9340534B2, “Compounds and methods for treating ocular diseases” (Allergan, Inc., priority 2014, dated 2016).
